Measurements as given in US11802120B2, “Fused cyclic urea derivatives as CRHR2 antagonist” (RaQualia Pharma Inc., priority 2018, dated 2023).

Each compound was assayed against T1, human CRHR2-alpha (Homo sapiens, UniProt Q13324) (assay: cAMP functional assay for human CRHR2 (LANCE Ultra cAMP, TR-FRET)). Conditions: CHO-K1 cells expressing human CRHR2-alpha, agonist human urocortin2 at EC80, cAMP; read-out: IC50 against CRHR2.
T1 sequence (Q13324 1-411): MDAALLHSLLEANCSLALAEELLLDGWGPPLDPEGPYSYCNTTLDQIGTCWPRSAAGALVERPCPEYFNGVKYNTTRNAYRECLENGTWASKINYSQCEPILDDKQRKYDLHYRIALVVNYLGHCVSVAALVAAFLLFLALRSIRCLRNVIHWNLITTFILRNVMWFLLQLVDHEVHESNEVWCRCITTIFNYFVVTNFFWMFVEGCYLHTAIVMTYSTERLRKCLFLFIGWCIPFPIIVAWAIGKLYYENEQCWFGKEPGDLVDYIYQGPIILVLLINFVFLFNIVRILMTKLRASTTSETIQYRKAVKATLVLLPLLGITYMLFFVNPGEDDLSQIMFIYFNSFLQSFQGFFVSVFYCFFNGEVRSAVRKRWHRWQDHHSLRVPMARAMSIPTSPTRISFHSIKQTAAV
Format: cell-based
How it was run: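 Inhibition of agonist-driven cAMP was assessed in recombinant CHO-K1 cells at 25° C, using 30 min compound pretreatment and 30 min stimulation with EC80 human urocortin2 (CRHR2) or CRF (CRHR1). IC50 came from dose-response fitting.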

| Compound | IC50 |
| --- | --- |
| Cc1cn(CCO)c2ncc(-n3c(=O)n(C[C@H]4CC[C@H](NC(=O)c5cc(Cl)cnc5C(F)F)CC4)c4ccccc43)cc12 [Example 731, 5-chloro-2-(difluoromethyl)-N-((1r,4r)-4-((3-(1-(2-hydroxyethyl)-3-methyl-1H-pyrrolo[2,3-b]pyridin-5-yl)-2-oxo-2,3-dihydro-1H-benzo[d]imidazol-1-yl)methyl)cyclohexyl)nicotinamide] | < 0.3 µM |
| Cn1c(CO)cc2cc(-n3c(=O)n(C[C@H]4CC[C@H](NC(=O)c5cc(Cl)cnc5C(F)F)CC4)c4ccccc43)cnc21 [Example 732, 5-chloro-2-(difluoromethyl)-N-((1r,4r)-4-((3-(2-(hydroxymethyl)-1-methyl-1H-pyrrolo[2,3-b]pyridin-5-yl)-2-oxo-2,3-dihydro-1H-benzo[d]imidazol-1-yl)methyl)cyclohexyl)nicotinamide] | < 0.3 µM |
| O=C(N[C@H]1CC[C@H](Cn2c(=O)n(-c3ccc(-c4ncc[nH]4)nc3)c3ccccc32)CC1)c1cc(Cl)cnc1C(F)F [Example 733, N-((1r,4r)-4-((3-(6-(1H-imidazol-2-yl)pyridin-3-yl)-2-oxo-2,3-dihydro-1H-benzo[d]imidazol-1-yl)methyl)cyclohexyl)-5-chloro-2-(difluoromethyl)nicotinamide] | < 0.3 µM |
| CN1CCN(c2ccc(-n3c(=O)n(C[C@H]4CC[C@H](NC(=O)c5cc(Cl)cnc5C(F)F)CC4)c4ccccc43)nc2)C1=O [Example 735, 5-chloro-2-(difluoromethyl)-N-((1r,4r)-4-((3-(5-(3-methyl-2-oxoimidazolidin-1-yl)pyridin-2-yl)-2-oxo-2,3-dihydro-1H-benzo[d]imidazol-1-yl)methyl)cyclohexyl) nicotinamide] | < 0.3 µM |
| O=C(N[C@H]1CC[C@H](Cn2c(=O)n(-c3ccc(N4CCNC4=O)nc3)c3ccc(F)cc32)CC1)c1cc(Cl)cnc1C(F)F [Example 736, 5-chloro-2-(difluoromethyl)-N-((1r,4r)-4-((6-fluoro-2-oxo-3-(6-(2-oxoimidazolidin-1-yl)pyridin-3-yl)-2,3-dihydro-1H-benzo[d]imidazol-1-yl)methyl)cyclohexyl) nicotinamide] | < 0.3 µM |
| Cn1ccc(-c2ccc(-n3c(=O)n(C[C@H]4CC[C@H](NC(=O)c5cc(Cl)cnc5C(F)F)CC4)c4ccccc43)cn2)n1 [Example 737, 5-chloro-2-(difluoromethyl)-N-((1r,4r)-4-((3-(6-(1-methyl-1H-pyrazol-3-yl)pyridin-3-yl)-2-oxo-2,3-dihydro-1H-benzo[d]imidazol-1-yl)methyl)cyclohexyl)nicotinamide] | < 0.3 µM |
| O=C(N[C@H]1CC[C@H](Cn2c(=O)n(-c3ccc(-c4ncc[nH]4)cc3)c3ccccc32)CC1)c1cc(Cl)cnc1C(F)F [Example 743, N-((1r,4r)-4-((3-(4-(1H-imidazol-2-yl)phenyl)-2-oxo-2,3-dihydro-1H-benzo[d]imidazol-1-yl)methyl)cyclohexyl)-5-chloro-2-(difluoromethyl)nicotinamide] | < 0.3 µM |
| O=C(N[C@H]1CC[C@H](Cn2c(=O)n(-c3cccc(-c4nnco4)c3)c3ccccc32)CC1)c1cc(Cl)cnc1C(F)F [Example 748, N-((1r,4r)-4-((3-(3-(1,3,4-oxadiazol-2-yl)phenyl)-2-oxo-2,3-dihydro-1H-benzo [d]imidazol-1-yl)methyl)cyclohexyl)-5-chloro-2-(difluoromethyl)nicotinamide] | < 0.3 µM |
| O=C(N[C@H]1CC[C@H](Cn2c(=O)n(-c3ccc(N4CCCC4=O)cn3)c3ccccc32)CC1)c1cc(Cl)cnc1C(F)F [Example 767, 5-chloro-2-(difluoromethyl)-N-((1r,4r)-4-((2-oxo-3-(5-(2-oxopyrrolidin-1-yl)pyridin-2-yl)-2,3-dihydro-1H-benzo [d]imidazol-1-yl)methyl)cyclohexyl)nicotinamide] | < 0.3 µM |
| Cc1ncc(Cl)cc1C(=O)N[C@H]1CC[C@H](Cn2c(=O)n(-c3cccc(N4CCNC4=O)n3)c3ccccc32)CC1 [Example 772, 5-chloro-2-methyl-N-((1r,4r)-4-((2-oxo-3-(6-(2-oxo-imidazolidin-1-yl)pyridin-2-yl)-2,3-dihydro-1H-benzo [d]imidazol-1-yl)methyl)cyclohexyl)nicotinamide] | < 0.3 µM |
| O=C(N[C@H]1CC[C@H](Cn2c(=O)n(-c3cccc(N4CCNC4=O)n3)c3ccccc32)CC1)c1cc(Cl)cnc1C(F)F [Example 773, 5-chloro-2-(difluoromethyl)-N-((1r,4r)-4-((2-oxo-3-(6-(2-oxoimidazolidin-1-yl)pyridin-2-yl)-2,3-dihydro-1H-benzo [d]imidazol-1-yl)methyl)cyclo-hexyl)nicotinamide] | < 0.3 µM |

Other lines, results leading:

| IC50 | Compound |
| --- | --- |
| < 0.3 µM | COc1ccc(F)c(-n2c(=O)n(C[C@H]3CC[C@H](NC(=O)c4cc(Cl)cnc4C(F)F)CC3)c3ncccc32)c1 [Example 720, 5-chloro-2-(difluoromethyl)-N-((1r,4r)-4-((1-(2-fluoro-5-methoxyphenyl)-2-oxo-1H-imidazo[4,5-b]pyridin-3(2H)-yl)methyl)cyclohexyl) nicotinamide] |
| < 0.3 µM | O=C(N[C@H]1CC[C@H](Cn2c(=O)n(-c3ccccc3Cl)c3cnccc32)CC1)c1cc(Cl)cnc1C(F)F [Example 721, 5-chloro-N-((1r,4r)-4-((3-(2-chlorophenyl)-2-oxo-2,3-dihydro-1H-imidazo[4,5-c]pyridin-1-yl)methyl)cyclo-hexyl)-2-(difluoromethyl) nicotinamide] |
| < 0.3 µM | COc1ccc(-n2c(=O)n(C[C@H]3CC[C@H](NC(=O)c4cc(Cl)cnc4C(F)F)CC3)c3ncccc32)cc1F [Example 722, 5-chloro-2-(difluoromethyl)-N-((1r,4r)-4-((1-(3-fluoro-4-methoxyphenyl)-2-oxo-1H-imidazo[4,5-b]pyridin-3(2H)-yl)methyl)cyclohexyl) nicotinamide] |
| < 0.3 µM | COc1ccc(-n2c(=O)n(C[C@H]3CC[C@H](NC(=O)c4cc(Cl)cnc4C(F)F)CC3)c3cnccc32)cc1F [Example 724, 5-chloro-2-(difluoromethyl)-N-((1r,4r)-4-((1-(3-fluoro-4-methoxyphenyl)-2-oxo-1H-imidazo[4,5-c]pyridin-3(2H)-yl)methyl)cyclohexyl) nicotinamide] |
| < 0.3 µM | COc1ccc(F)c(-n2c(=O)n(C[C@H]3CC[C@H](NC(=O)c4cc(Cl)cnc4C(F)F)CC3)c3cccnc32)c1 [Example 725, 5-chloro-2-(difluoromethyl)-N-((1r,4r)-4-((3-(2-fluoro-5-methoxyphenyl)-2-oxo-2,3-dihydro-1H-imidazo[4,5-b]pyridin-1-yl)methyl)cyclo-hexyl)nicotinamide] |
| < 0.3 µM | COc1ccc(F)c(-n2c(=O)n(C[C@H]3CC[C@H](NC(=O)c4cc(Cl)cnc4C(F)F)CC3)c3cnccc32)c1 [Example 726, 5-chloro-2-(difluoromethyl)-N-((1r,4r)-4-((1-(2-fluoro-5-methoxyphenyl)-2-oxo-1H-imidazo[4,5-c]pyridin-3(2H)-yl)methyl)cyclohexyl) nicotinamide] |
| < 0.3 µM | Cn1ccc2cc(-n3c(=O)n(C[C@H]4CC[C@H](NC(=O)c5cc(Cl)cnc5C(F)F)CC4)c4cccnc43)cnc21 [Example 730, 5-chloro-2-(difluoromethyl)-N-((1r,4r)-4-((3-(1-methyl-1H-pyrrolo[2,3-b]pyridin-5-yl)-2-oxo-2,3-dihydro-1H-imidazo[4,5-b]pyridin-1-yl)methyl)cyclohexyl)nicotinamide] |
